# Assay results reported in ChEMBL document CHEMBL1130052, “Substituted [(4-phenylpiperazinyl)-methyl]benzamides: selective dopamine D4 agonists” (J Med Chem, 1997).
# How the values were obtained:
# D(2) dopamine receptor = D(2) dopamine receptor (Homo sapiens, UniProt P14416); test: Binding affinity for human Dopamine receptor D2 expressed in CHO K1 transfected cells using [3H]spiperone as radioligand; type: cell-based
# D(3) dopamine receptor = D(3) dopamine receptor (Homo sapiens, UniProt P35462); test: Binding affinity for human Dopamine receptor D3 expressed in CHO K1 transfected cells using [3H]spiperone as radioligand; type: cell-based
# Sequence of D(3) dopamine receptor (P35462 whole entry): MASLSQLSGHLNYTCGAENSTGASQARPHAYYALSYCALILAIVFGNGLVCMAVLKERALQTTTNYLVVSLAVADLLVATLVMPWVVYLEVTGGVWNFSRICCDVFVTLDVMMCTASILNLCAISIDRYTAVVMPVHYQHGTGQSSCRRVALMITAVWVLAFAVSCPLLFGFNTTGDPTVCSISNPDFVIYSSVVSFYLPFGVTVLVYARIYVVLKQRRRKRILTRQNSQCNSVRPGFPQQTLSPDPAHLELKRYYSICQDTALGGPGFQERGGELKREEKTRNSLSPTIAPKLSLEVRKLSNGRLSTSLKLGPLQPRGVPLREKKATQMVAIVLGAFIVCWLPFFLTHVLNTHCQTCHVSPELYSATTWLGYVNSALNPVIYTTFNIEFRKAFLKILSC
# D(4) dopamine receptor = biological target: T1, D(4) dopamine receptor (Homo sapiens, UniProt P21917); test: biochemical
# T1 sequence (P21917 whole entry): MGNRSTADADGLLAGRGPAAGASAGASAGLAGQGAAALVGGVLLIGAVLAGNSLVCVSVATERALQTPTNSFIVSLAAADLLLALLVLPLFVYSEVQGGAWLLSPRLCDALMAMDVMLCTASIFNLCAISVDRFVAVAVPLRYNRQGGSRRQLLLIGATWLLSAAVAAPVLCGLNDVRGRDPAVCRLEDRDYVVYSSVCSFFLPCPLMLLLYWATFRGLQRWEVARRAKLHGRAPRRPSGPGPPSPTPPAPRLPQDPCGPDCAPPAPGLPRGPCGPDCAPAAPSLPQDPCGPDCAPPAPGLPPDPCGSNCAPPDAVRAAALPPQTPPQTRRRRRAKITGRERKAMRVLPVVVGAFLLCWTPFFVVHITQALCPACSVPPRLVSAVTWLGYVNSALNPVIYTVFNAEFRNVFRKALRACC
# Description: Binding affinity for human Dopamine receptor D4 expressed in CHO K1 transfected cells using [3H]spiperone as radioligand
# [1] = biological target: T2, 5-hydroxytryptamine receptor 1A (Mus musculus, UniProt Q64264); test: Binding affinity at 5-hydroxytryptamine 1A receptor
# T2 sequence (Q64264 whole entry): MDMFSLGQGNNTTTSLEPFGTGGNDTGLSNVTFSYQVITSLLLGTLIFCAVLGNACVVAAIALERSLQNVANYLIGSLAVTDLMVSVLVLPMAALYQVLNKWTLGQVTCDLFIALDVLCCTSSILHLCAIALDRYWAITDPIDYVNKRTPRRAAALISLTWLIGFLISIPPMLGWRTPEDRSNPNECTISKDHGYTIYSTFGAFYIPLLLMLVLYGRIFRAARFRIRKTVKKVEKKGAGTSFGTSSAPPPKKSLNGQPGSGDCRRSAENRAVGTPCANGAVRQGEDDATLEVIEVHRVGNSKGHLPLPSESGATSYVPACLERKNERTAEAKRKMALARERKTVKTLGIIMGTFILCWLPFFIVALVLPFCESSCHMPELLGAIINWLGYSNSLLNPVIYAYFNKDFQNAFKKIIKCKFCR
# [2] = biological target: 5-hydroxytryptamine receptor 2A (Homo sapiens, UniProt P28223); test: Binding affinity at 5-hydroxytryptamine 2A receptor
# Sequence of 5-hydroxytryptamine receptor 2A (P28223 whole entry): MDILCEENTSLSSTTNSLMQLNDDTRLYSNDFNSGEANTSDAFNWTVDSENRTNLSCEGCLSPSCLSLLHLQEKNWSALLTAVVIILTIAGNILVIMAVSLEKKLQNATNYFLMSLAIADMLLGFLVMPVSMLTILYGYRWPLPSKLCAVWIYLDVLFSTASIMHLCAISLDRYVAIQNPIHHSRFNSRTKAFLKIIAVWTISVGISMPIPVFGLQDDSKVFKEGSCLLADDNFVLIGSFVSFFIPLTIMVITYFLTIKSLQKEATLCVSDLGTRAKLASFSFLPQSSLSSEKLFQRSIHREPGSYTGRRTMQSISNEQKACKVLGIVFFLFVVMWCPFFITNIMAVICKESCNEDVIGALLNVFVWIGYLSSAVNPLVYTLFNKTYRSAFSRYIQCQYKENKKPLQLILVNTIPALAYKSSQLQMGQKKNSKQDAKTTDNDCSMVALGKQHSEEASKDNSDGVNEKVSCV
# Sequence of D(2) dopamine receptor (P14416 whole entry): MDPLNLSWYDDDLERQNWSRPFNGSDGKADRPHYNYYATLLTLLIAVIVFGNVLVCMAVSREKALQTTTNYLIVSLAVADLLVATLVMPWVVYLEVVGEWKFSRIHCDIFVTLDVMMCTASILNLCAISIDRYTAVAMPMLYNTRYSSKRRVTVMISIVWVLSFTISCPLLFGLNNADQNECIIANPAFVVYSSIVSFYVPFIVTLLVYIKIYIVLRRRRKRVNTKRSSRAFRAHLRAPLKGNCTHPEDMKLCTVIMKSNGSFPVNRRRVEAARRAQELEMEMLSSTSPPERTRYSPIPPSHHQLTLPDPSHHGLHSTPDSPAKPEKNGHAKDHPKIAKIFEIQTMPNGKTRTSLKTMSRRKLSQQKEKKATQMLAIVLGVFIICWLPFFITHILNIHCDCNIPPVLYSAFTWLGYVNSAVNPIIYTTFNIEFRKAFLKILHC
Ki (D(2) dopamine receptor),Ki (D(3) dopamine receptor),Ki (D(4) dopamine receptor),Ki [1],Ki [2],SMILES
1500 nM,177 nM,32 nM,–,–,O=C(NCN1CCN(c2ccccc2Cl)CC1)c1ccccc1
835 nM,2480 nM,6.7 nM,–,–,COc1ccccc1N1CCN(CNC(=O)c2cccc(C)c2)CC1
1330 nM,464 nM,27 nM,–,–,Cc1cccc(C(=O)NCN2CCN(c3ccccc3Cl)CC2)c1
291 nM,174 nM,7.7 nM,–,–,COc1ccccc1N1CCN(CNC(=O)c2ccc(C)cc2)CC1
897 nM,2270 nM,34 nM,–,–,N#Cc1ccccc1N1CCN(CNC(=O)c2cccc(Cl)c2)CC1
451 nM,1450 nM,15 nM,–,–,COc1ccccc1N1CCN(CNC(=O)c2cccc(Cl)c2)CC1
466 nM,49 nM,12 nM,–,–,Cc1ccc(C(=O)NCN2CCN(c3ccccc3Cl)CC2)cc1
4180 nM,> 3000 nM,27 nM,–,–,N#Cc1ccccc1N1CCN(CNC(=O)c2ccccc2)CC1
3740 nM,2810 nM,–,385 nM,4010 nM,"Cc1cccc(C(=O)NCN2CCN(c3ccccc3C#N)CC2)c1 [PD-168,077]"
–,2470 nM,22 nM,–,–,COc1ccccc1N1CCN(CNC(=O)c2ccccc2)CC1
929 nM,600 nM,5.5 nM,–,–,N#Cc1ccccc1N1CCN(CNC(=O)c2ccc(Cl)cc2)CC1
2420 nM,364 nM,41 nM,–,–,O=C(NCN1CCN(c2ccccc2Cl)CC1)c1cccc(Cl)c1
–,66 nM,5.3 nM,–,–,O=C(NCN1CCN(c2ccccc2Cl)CC1)c1ccc(Cl)cc1
349 nM,268 nM,14 nM,–,–,COc1ccccc1N1CCN(CNC(=O)c2ccc(Cl)cc2)CC1
1150 nM,377 nM,6.5 nM,–,–,Cc1ccc(C(=O)NCN2CCN(c3ccccc3C#N)CC2)cc1
